Laboratory results as given in patent publication US10618901B2 (GlaxoSmithKline Intellectual Property Development Limited, priority 2014, dated 2020).

These compounds were tested against T1, 6HIS-Tev-LRRK2 (1326-2527) (Homo sapiens, UniProt Q5S007) (assay: Recombinant LRRK2 enzyme peptide substrate TR-FRET assay). Conditions: 60 nM LRRK2 enzyme; 1 uM Biotin-longer LRRKtide; 10 uM ATP.
T1 construct: A LRRK2 cDNA encoding residues 1326-2527 was received from Dundee University; made in house; host or cells: Spodoptera frugiperda Sf9 (baculovirus, pFB-HTb)
T1 sequence (Q5S007 1326-2527): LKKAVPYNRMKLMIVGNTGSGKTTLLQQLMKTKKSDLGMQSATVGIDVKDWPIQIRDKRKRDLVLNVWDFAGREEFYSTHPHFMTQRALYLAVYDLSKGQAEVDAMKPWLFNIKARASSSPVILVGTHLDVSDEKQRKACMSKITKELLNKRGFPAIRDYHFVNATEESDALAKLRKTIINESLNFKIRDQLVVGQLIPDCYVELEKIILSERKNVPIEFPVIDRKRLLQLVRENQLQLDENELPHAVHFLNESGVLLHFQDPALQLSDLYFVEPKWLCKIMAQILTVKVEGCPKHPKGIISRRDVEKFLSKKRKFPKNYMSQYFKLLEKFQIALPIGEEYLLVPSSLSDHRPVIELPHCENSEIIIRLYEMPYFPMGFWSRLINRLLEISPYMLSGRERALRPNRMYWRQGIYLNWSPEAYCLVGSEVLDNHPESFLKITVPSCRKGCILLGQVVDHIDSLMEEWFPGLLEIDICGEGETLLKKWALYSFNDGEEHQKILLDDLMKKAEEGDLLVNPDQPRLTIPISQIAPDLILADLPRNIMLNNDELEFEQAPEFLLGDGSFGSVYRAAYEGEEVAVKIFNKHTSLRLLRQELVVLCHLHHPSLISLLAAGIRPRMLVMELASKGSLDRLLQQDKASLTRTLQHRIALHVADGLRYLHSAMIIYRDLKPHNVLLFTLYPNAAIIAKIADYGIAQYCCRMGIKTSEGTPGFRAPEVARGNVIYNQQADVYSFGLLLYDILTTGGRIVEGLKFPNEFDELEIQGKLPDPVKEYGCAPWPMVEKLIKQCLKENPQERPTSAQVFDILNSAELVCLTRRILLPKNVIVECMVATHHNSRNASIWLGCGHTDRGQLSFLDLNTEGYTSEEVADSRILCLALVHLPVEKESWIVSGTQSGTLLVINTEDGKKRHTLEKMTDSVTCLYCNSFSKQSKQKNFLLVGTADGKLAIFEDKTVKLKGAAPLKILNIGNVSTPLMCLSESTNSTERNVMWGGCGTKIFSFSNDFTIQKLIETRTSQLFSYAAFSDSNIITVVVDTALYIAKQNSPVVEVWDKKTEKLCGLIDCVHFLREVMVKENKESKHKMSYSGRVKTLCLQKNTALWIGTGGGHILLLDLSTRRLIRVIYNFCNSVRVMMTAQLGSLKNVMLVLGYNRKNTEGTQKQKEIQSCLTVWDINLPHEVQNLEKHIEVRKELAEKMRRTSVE
Type: biochemical
Protocol: A LRRK2 cDNA encoding residues 1326-2527 was received from Dundee University (described in M. Jaleel et al., 2007, Biochem J, 405: 407-417). This gene fragment was subcloned into pFB-HTb (Invitrogen) using BamHI and NotI restriction sites. The LRRK2 plasmid was recombined into the baculovirus genome according to the BAC-to-BAC protocol described by Invitrogen. Transfection into Spodoptera frugiperda (Sf9) insect cells was performed using Cellfectin (Invitrogen), according to the manufacturer's protocol to generate P1 and P2 baculovirus stocks.
Sf9 cells were grown in HyClone SFX (Thermo Scientific) growth media at 27° C., 80 rpm in shake flask until of a sufficient volume to inoculate a bioreactor. The cells were grown in a 20 liter working volume Wave bioreactor (GE Healthcare) at 27° C., 50% dissolved oxygen and an agitation rate 22 rocks per minute, 10 degree rock angle, 200 ml/min air with a cell concentration of approximately 6×e6 cells/ml. The cells were infected with P2 Baculovirus at a multiplicity of infection (MOI) of 3. The cultivation was continued for a 48 hour expression phase. The infected cells were removed from the growth media by centrifugation at 2500 g using a Sorvall RC 3C Plus centrifuge at 2500 g for 20 minutes. The cell pellet was immediately frozen and subsequently supplied for purification.
A 260 g pellet was allowed to thaw in a water bath at 27° C. with 800 ml lysis buffer/buffer A (50 mm Tris-HCl pH 8.5, 300 mM NaCl, 1 mm DTT, 10% glycerol, 1 ml/L calbiochem complete protease inhibitor cocktail and benzonase (50 ul/800 ml)) before being dounce homogenised on ice using 20 strokes per 100 ml. The suspension was packed in ice and sonicated at 50% amplitude for 3 min 10 sec on/off using a ¾″ probe. The suspension was then centrifuged at 100,000 g for 90 min, at 4° C.
The lysate (700 ml) was decanted from the insoluble pellet and contacted for 3 h at 4 C with 10 ml His bind Ni NTA resin by end over end mixing. The resin was recovered by centrifugation, 3000 g, 5 min at 4 C, and packed in an XK16 column. The column was then washed with 10 column volumes buffer A, 10 column volumes buffer B (buffer A+1M NaCl) and 10 column volumes buffer C (buffer A+20 mM imidazole). The column was then eluted with 15 column volumes buffer D (buffer A+300 mM imidazole) collecting 2 ml fractions. All washes and elution were conducted at 4 ml/min.
Fractions identified by SDS-PAGE as containing protein of interest were pooled and loaded directly onto a 320 ml SEC Superdex 200 pg column that was pre-equilibrated with buffer E (50 mM Tris-HCl pH 8.5, 300 mM NaCl, 10% glycerol, 1 mM DTT). The column was loaded and eluted with 1.2 column volumes buffer E at 2 ml/min collecting 2 ml fractions. Fractions identified by SDS-PAGE as containing protein of interest were tested for activity.
Production of Biotin-Loner LRRKtide
The peptide (biotin-[…]-OH) was assembled at a […] scale using FMOC solid phase peptide synthesis on an ACT 357 MPS automated peptide synthesizer. The resulting crude peptide was cleaved from the resin using a 95:2.5:2.5 mix of trifluoroacetic acid: triisopropylsilane: water. The crude cleaved peptide was purified by reverse phase HPLC, eluting with a 5-35% gradient of 0.1% trifluoroacetic acid/acetonitrile in 0.1% trifluoroacetic acid/water.
Recombinant LRRK2 Enzyme Peptide Substrate TR-FRET Assay
This assay for LRRK2 inhibition is based on the detection of phosphorylation of the peptide ‘longer LRRKtide’ (biotin-[…]-OH) using a time resolved-fluorescence resonance energy transfer (TR-FRET) assay. It uses an antibody labelled europium chelate donor, W-1024 (Eu) and Streptavidin-Surelight APC acceptor (APC). When in close proximity, the excitation of Eu at 330 nm leads to energy transfer to APC with emission of light at 665 nm,
Assay Protocol • 1. A 10 mM test compound was dissolved in 100% DMSO and serially diluted 1 in 4. […]
With “cis-3-(4-((4-ethoxy-7H-pyrrolo[2,3-d]pyrimidin-2-yl)amino)-5-methyl-1H-pyrazol-1-yl)cyclopentanol [Example E56]” the “recombinant LRRK2 enzyme peptide substrate TR-FRET assay (pIC50)” value was 8.1.
With “trans-2-(4-((4-ethoxy-7H-pyrrolo-[2,3-d]pyrimidin-2-yl)amino)-5-methyl-1H-pyrazol-1-yl)-cyclopentanol [Example E40]” the “recombinant LRRK2 enzyme peptide substrate TR-FRET assay (pIC50)” value was 8.3.
In the case of “trans-2-(4-((4-ethoxy-7H-pyrrolo-[2,3-d]pyrimidin-2-yl)amino)-5-methyl-1H-pyrazol-1-yl)-cyclopentanol [Example E41]”, the “recombinant LRRK2 enzyme peptide substrate TR-FRET assay (pIC50)” value is reported as 8.
For “trans-2-(5-chloro-4-((4-ethoxy-7H-pyrrolo-[2,3-d]-pyrimidin-2-yl)amino)-1H-pyrazol-1-yl)-cyclopentanol [Example E37]”, the “recombinant LRRK2 enzyme peptide substrate TR-FRET assay (pIC50)” value was 9.
For “trans-2-(5-chloro-4-((4-ethoxy-7H-pyrrolo-[2,3-d]-pyrimidin-2-yl)amino)-1H-pyrazol-1-yl)cyclopentanol [Example E38]”, the “recombinant LRRK2 enzyme peptide substrate TR-FRET assay (pIC50)” value was 9.1.

Same assay, conditions: 60 nM LRRK2 enzyme; 1 uM Biotin-longer LRRKtide; 10 uM ATP; read-out: recombinant LRRK2 enzyme peptide substrate TR-FRET assay (pIC50) (converted)
Work on `CCOc1nc(Nc2cnn(C3CCN(C)C3)c2C)nc2[nH]ccc12` (single isomer, unassigned) [Example E14, 4-ethoxy-N-(5-methyl-1-(1-methylpyrrolidin-3-yl)-1H-pyrazol-4-yl)-7H-pyrrolo-[2,3-d]-pyrimidin-2-amine] yielded an IC50 of 12.6 nM.
Compound `CCOc1nc(Nc2cnn(CC(C)(C)O)c2C)nc2[nH]ccc12` [Example E3, 1-(4-((4-ethoxy-7H-pyrrolo-[2,3-d]pyrimidin-2-yl)amino)-5-methyl-1H-pyrazol-1-yl)-2-methylpropan-2-ol] has an IC50 of 12.6 nM.
For `CCOc1nc(Nc2cnn(C3CCOCC3)c2C2CC2)nc2[nH]ccc12` [Example E44, N-(5-cyclopropyl-1-(tetrahydro-2H-pyran-4-yl)-1H-pyrazol-4-yl)-4-ethoxy-7H-pyrrolo-[2,3-d]pyrimidin-2-amine], the IC50 was 7.94 nM.
Work on `CCOc1nc(Nc2cnn(CCN3CCOCC3)c2C)nc2[nH]ccc12` [Example E45, 4-ethoxy-N-(5-methyl-1-(2-morpholinoethyl)-1H-pyrazol-4-yl)-7H-pyrrolo-[2,3-d]pyrimidin-2-amine] yielded an IC50 of 10 nM.
For `CCOc1nc(Nc2cnn(C3CC(O)C3)c2C)nc2[nH]ccc12` (stereo not shown) [Example E52, 3-(4-((4-ethoxy-7H-pyrrolo-[2,3-d]-pyrimidin-2-yl)-amino)-5-methyl-1H-pyrazol-1-yl)cyclo-butanol], the IC50 was 7.94 nM.

Same assay, conditions: 60 nM LRRK2 enzyme; 10 uM ATP; read-out: pIC50 in the recombinant LRRK2 enzyme peptide substrate TR-FRET assay (converted)
`CCOc1nc(Nc2cnn(C3CCCC3(C)O)c2C)nc2[nH]ccc12` (racemic) [Example E70, Trans-2-(4-((4-ethoxy-7H-pyrrolo-[2,3-d]pyrimidin-2-yl)amino)-5-methyl-1H-pyrazol-1-yl)-1-methylcyclopentanol] was tested, and the IC50 was no more than 100 nM.
In the case of `CCOc1nc(Nc2cnn(C3CCN(C4COC4)C3)c2C)nc2[nH]ccc12` (single isomer, unassigned) [Example E67, 4-ethoxy-N-(5-methyl-1-(1-(oxetan-3-yl)-pyrrolidin-3-yl)-1H-pyrazol-4-yl)-7H-pyrrolo-[2,3-d]pyrimidin-2-amine], the IC50 is reported as no more than 100 nM.
`CCOc1nc(Nc2cnn(CCOC)c2Cl)nc2[nH]ccc12` [Example E21, N-(5-chloro-1-(2-methoxyethyl)-1H-pyrazol-4-yl)-4-ethoxy-7H-pyrrolo-[2,3-d]-pyrimidin-2-amine] was tested, and the IC50 was no more than 100 nM.
